Results published in the supplement of paper PMC8960247.
Counter-ions that a name gives are not always drawn. ± gives the standard error.

Legend:
621-102 (TSC2-deficient) = assay: relative viability vs DMSO; higher = less cytotoxic; details: serum: 10% FBS, 72 h
621-103 (TSC2-rescued) = assay: as above; details: serum: 10% FBS, 72 h
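Further: immortalized renal angiomyolipoma cells stably carrying empty vector or TSC2, dosed in 384-well plates in DMEM, viability normalized to vehicle-treated wells within each plate.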

SMILES | relative viability (621-102 (TSC2-deficient); 0.0001 µM) | relative viability (621-102 (TSC2-deficient); 0.001 µM) | relative viability (621-102 (TSC2-deficient); 0.01 µM) | relative viability (621-102 (TSC2-deficient); 0.1 µM) | relative viability (621-102 (TSC2-deficient); 1 µM) | relative viability (621-102 (TSC2-deficient); 10 µM) | relative viability (621-103 (TSC2-rescued); 0.0001 µM) | relative viability (621-103 (TSC2-rescued); 0.001 µM) | relative viability (621-103 (TSC2-rescued); 0.01 µM) | relative viability (621-103 (TSC2-rescued); 0.1 µM) | relative viability (621-103 (TSC2-rescued); 1 µM) | relative viability (621-103 (TSC2-rescued); 10 µM)
COc1ccc2[nH]c([S@@+]([O-])Cc3ncc(C)c(OC)c3C)nc2c1 [Esomeprazole sodium (Nexium I.V.)] | 93.6 ± 1.3% | 107 ± 6.9% | 107 ± 3.4% | 97.9 ± 3.1% | 91.1 ± 1% | 88.632 ± 0.085% | 111 ± 0.41% | 99.3 ± 0.93% | 101.7 ± 0.45% | 112 ± 4% | 102 ± 2.5% | 86.24 ± 0.28%
Nc1nc(Nc2ccc(S(N)(=O)=O)cc2)nn1C(=O)c1c(F)cccc1F | 107 ± 1.5% | 102.5 ± 0.3% | 107 ± 1.8% | 104 ± 1.3% | 97 ± 1.4% | 49.9 ± 5.8% | 98.71 ± 0.9% | 105 ± 2.8% | 106.4 ± 0.39% | 110 ± 4.5% | 93.5 ± 4.2% | 40.01 ± 0.12%
CCCNC(=O)Nc1ccc(Oc2ncnc3cc(OC)c(OC)cc23)cc1Cl [KRN 633] | 84.4 ± 4.7% | 119 ± 2.7% | 104 ± 12% | 94.6 ± 3.8% | 100 ± 2.7% | 102 ± 1.3% | 85.6 ± 4.4% | 95.9 ± 4.2% | 100 ± 3% | 96.9 ± 1.9% | 90.3 ± 3.6% | 99.8 ± 3.4%
O=C(O)[C@H]1O[C@@H](Oc2cc3oc(-c4ccccc4)cc(=O)c3c(O)c2O)[C@H](O)[C@@H](O)[C@@H]1O [Baicalin] | 97.45 ± 0.88% | 108 ± 3.8% | 106 ± 2.6% | 106 ± 1.6% | 110 ± 1.3% | 98.5 ± 1.3% | 113.5 ± 0.92% | 106 ± 1.2% | 118.8 ± 1.1% | 106 ± 4.6% | 105 ± 1.2% | 107.9 ± 0.63%
O=c1cc(-c2cccc3c2Sc2ccccc2S3)oc(N2CCOCC2)c1 | 101 ± 3% | 99.73 ± 0.79% | 98.3 ± 3.2% | 94.4 ± 1.1% | 100 ± 2.1% | 80.3 ± 0.73% | 78.3 ± 1.3% | 90.23 ± 0.51% | 85 ± 3.9% | 82.9 ± 0.99% | 77.06 ± 0.31% | 69.3 ± 3.3%
CN1CCC(CNc2ccc3ncc(-c4cccc(OC(F)(F)F)c4)n3n2)CC1 [SGI-1776] | 93.93 ± 0.059% | 110 ± 1.1% | 98.6 ± 2.4% | 96.61 ± 0.13% | 86.6 ± 1.3% | 0.96 ± 0.17% | 94.08 ± 0.52% | 101 ± 1.6% | 101 ± 1.6% | 98.8 ± 2.8% | 82.6 ± 2% | 0.884 ± 0.13%
COc1cc2c(Oc3ccc(NC(=O)C4(C(=O)Nc5ccc(F)cc5)CC4)cc3F)ccnc2cc1OCCCN1CCOCC1 | 108 ± 7.4% | 111 ± 6.2% | 98 ± 5.1% | 102 ± 5.8% | 84.55 ± 0.78% | 2.81 ± 0.28% | 97.08 ± 0.89% | 97.1 ± 1.1% | 93.9 ± 3.7% | 91.72 ± 0.35% | 69.1 ± 1.5% | 1.1 ± 0.14%
Cc1[nH]c(=O)c(C#N)cc1-c1ccncc1 [Milrinone (Primacor)] | 109 ± 3.1% | 114 ± 2.9% | 110 ± 2% | 103.33 ± 0.049% | 107 ± 3.9% | 107 ± 1.4% | 95.74 ± 0.27% | 91.11 ± 0.53% | 95.5 ± 9.2% | 91.8 ± 3.8% | 91.27 ± 0.77% | 89.3 ± 2.9%
CCCCNc1ccc(C(=O)OCCN(C)C)cc1 [Tetracaine HCl] | 113 ± 2.6% | 105 ± 2.3% | 100 ± 3.7% | 102 ± 3.7% | 102 ± 3.2% | 105 ± 1.1% | 72.9 ± 4.8% | 91.42 ± 0.14% | 90.6 ± 5.6% | 103 ± 6.7% | 78.5 ± 6.8% | 74.1 ± 2.6%
CN(C)c1ccc(-c2nc3ncc(Cl)c(N4CCN(CC(=O)Nc5nccs5)CC4)c3[nH]2)cc1 | 104 ± 2.7% | 96.7 ± 1.2% | 102 ± 4% | 105 ± 1.4% | 101 ± 4.3% | 49.3 ± 1.4% | 101 ± 2.5% | 103.4 ± 0.042% | 101.06 ± 0.096% | 100.6 ± 0.64% | 97.243 ± 0.044% | 47.5 ± 2.9%
O=C(NC[C@H](O)CO)c1ccncc1Nc1ccc(I)cc1F | 100.3 ± 0.48% | 92 ± 13% | 101 ± 3.2% | 97.01 ± 0.18% | 90.5 ± 2% | 55.7 ± 0.91% | 101.8 ± 0.97% | 104 ± 1.9% | 105 ± 1.4% | 103.5 ± 0.29% | 99.919 ± 0.052% | 78.4 ± 1.2%
CNC(=C[N+](=O)[O-])NCCSCc1ccc(CN(C)C)o1 [Ranitidine HCl] | 103 ± 8.4% | 104 ± 0.46% | 101 ± 2.8% | 97.8 ± 2.7% | 105 ± 2.8% | 97.6 ± 0.51% | 107 ± 3.1% | 106 ± 3.6% | 103.5 ± 0.96% | 106 ± 1.3% | 103 ± 3% | 100.1 ± 0.51%
CCOc1cc2ncc(C#N)c(Nc3ccc(OCc4ccccn4)c(Cl)c3)c2cc1NC(=O)/C=C/CN(C)C [Neratinib] | 110 ± 1.2% | 103 ± 1.1% | 117.5 ± 0.44% | 103.9 ± 0.36% | 88.058 ± 0.084% | 50.9 ± 0.56% | 101.7 ± 0.83% | 99.12 ± 0.5% | 100.4 ± 0.55% | 96 ± 2.1% | 67.12 ± 0.38% | 41.08 ± 0.095%
CCCc1nc2c(C)cc(-c3nc4ccccc4n3C)cc2n1Cc1ccc(-c2ccccc2C(=O)O)cc1 [Telmisartan] | 104 ± 2.5% | 104 ± 1.6% | 103 ± 2.6% | 105 ± 1.2% | 112 ± 6.6% | 113.2 ± 0.47% | 101 ± 2.7% | 97.8 ± 4.9% | 95.37 ± 0.79% | 103.34 ± 0.025% | 101 ± 4.2% | 107 ± 2.6%
Nc1nc(Cl)nc2c1ncn2[C@H]1C[C@H](O)[C@@H](CO)O1 [Cladribine] | 106.2 ± 0.9% | 110 ± 1.8% | 113 ± 2.1% | 106.4 ± 0.98% | 97.8 ± 3.5% | 52.73 ± 0.19% | 101 ± 1.4% | 101 ± 2.1% | 105 ± 2.1% | 105 ± 2.4% | 60.3 ± 0.92% | 43.5 ± 0.46%
Clc1ccc(C2(c3ccc(-c4cn[nH]c4)cc3)CCNCC2)cc1 [AT7867] | 98.8 ± 5.5% | 102 ± 6.2% | 105 ± 4.8% | 95.8 ± 1.7% | 85.23 ± 0.13% | 49.2 ± 3.2% | 89.1 ± 5.1% | 90.1 ± 2.4% | 90.2 ± 4.9% | 94.3 ± 6.7% | 75.1 ± 5.7% | 18.5 ± 2.6%
Cc1ccc(S(=O)(=O)OCC(=O)Nc2ccc(C(=O)O)c(O)c2)cc1 [S31-201] | 119.8 ± 0.59% | 125 ± 1.4% | 123 ± 3.5% | 121 ± 3.3% | 112 ± 1.6% | 119.2 ± 0.71% | 99.4 ± 2% | 98.17 ± 0.7% | 104 ± 2.1% | 102.7 ± 0.83% | 100 ± 1.8% | 101 ± 1.9%
CN(C)CC/C=C1/c2ccccc2Sc2ccc(Cl)cc21 [Chlorprothixene] | 93.1 ± 1.6% | 102 ± 5.2% | 102 ± 4.3% | 102.9 ± 0.47% | 108 ± 4% | 100.8 ± 0.6% | 103 ± 2.4% | 106 ± 5.4% | 102.3 ± 0.14% | 108 ± 2.9% | 108.9 ± 0.97% | 89.1 ± 2%
COc1cc2ncnc(Nc3ccc(F)c(Cl)c3)c2cc1OCCCN1CCOCC1 [Gefitinib] | 111 ± 1.2% | 105.6 ± 0.46% | 106.5 ± 0.3% | 96.3 ± 4.1% | 100 ± 1.1% | 84.7 ± 1.8% | 101 ± 1.8% | 101 ± 1.2% | 102 ± 1.6% | 99.7 ± 1.1% | 99.2 ± 1.2% | 76.4 ± 3.7%
